From ChEMBL document CHEMBL1201862, “PubChem BioAssay data set” (2004)
The source made the active and inactive calls. Rule as the data show it, for most assays here: actives have a measured EC50 and inactives only a lower limit.

Experiments:
Streptococcus = experiment: GAS UMAA2166 growth inhibition – luminescence, BacTiterGlo, counter-screen for streptokinase expression inhibitor project, dose response (AID 1915); type: functional, organism-based;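 also: potency for reduction of bacterial viability or growth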
Streptokinase A = molecular target: T1, Streptokinase A (Streptococcus pyogenes serotype M1, UniProt P10520); experiment: viability-normalized secreted streptokinase activity reduction – plasminogen activation absorbance, OD405, dose response (AID 1914); type: functional, Streptococcus pyogenes M1 GAS;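 also: secreted streptokinase activity via plasminogen activation per viability signal from cell pellet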
T1 sequence (P10520 whole entry): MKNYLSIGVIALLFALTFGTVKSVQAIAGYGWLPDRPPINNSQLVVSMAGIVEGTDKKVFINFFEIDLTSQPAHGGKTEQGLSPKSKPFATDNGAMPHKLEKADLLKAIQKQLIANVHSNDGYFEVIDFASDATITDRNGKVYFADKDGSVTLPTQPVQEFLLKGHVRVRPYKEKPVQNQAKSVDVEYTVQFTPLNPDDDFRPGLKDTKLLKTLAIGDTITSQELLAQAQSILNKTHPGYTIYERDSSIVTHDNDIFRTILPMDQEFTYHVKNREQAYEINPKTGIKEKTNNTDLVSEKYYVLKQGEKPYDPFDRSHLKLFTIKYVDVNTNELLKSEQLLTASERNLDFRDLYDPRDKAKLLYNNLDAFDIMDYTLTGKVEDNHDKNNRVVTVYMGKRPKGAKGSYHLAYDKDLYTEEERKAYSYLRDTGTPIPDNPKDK

[1] = Trypanosoma cruzi growth suppression in host cells – NIH3T3 host cells, beta-gal luminescence, confirmation (AID 2044); type: functional, cell-based;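 also: intracellular parasites grown in NIH/3T3 mouse fibroblasts as host cells; luminescent beta-galactosidase reporter signal from transgenic T. cruzi replicating inside host cells; inhibitors lower the luminescence signal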
[2] = NIH3T3 cell viability loss – ATP luminescence, mouse fibroblasts, counter-screen, dose response (AID 2010); type: functional, cell-based;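 also: cells exposed to compound for about 90 hours before reading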
[3] = tested on: Streptococcus sp. 'group A'; experiment: Streptococcus pyogenes SK(-)GAS viability under kanamycin – luminescence, BacTiterGlo, confirmation, counter-screen for streptokinase expression inhibitor project, dose response (AID 1900); type: functional, organism-based
[4] = molecular target: T2, Carboxy-terminal domain RNA polymerase II polypeptide A small phosphatase 1 (Homo sapiens, UniProt Q9GZU7); experiment: CTDSP1 inhibitors, concentration-response, biochemical, absorbance readout, ultra-high-throughput screen actives (AID 540297); type: functional
T2 sequence (Q9GZU7 whole entry): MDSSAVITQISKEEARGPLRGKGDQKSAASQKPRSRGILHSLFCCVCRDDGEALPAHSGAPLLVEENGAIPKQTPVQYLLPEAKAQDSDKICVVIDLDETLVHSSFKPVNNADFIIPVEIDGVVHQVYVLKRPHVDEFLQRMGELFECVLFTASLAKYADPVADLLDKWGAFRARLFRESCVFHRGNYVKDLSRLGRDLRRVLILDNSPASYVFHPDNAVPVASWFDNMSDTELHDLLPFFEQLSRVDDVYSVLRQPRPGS

[5] = reduction of Shn3 3'UTR-driven luciferase in osteoblasts – cell-based, Clone20 osteoblasts, firefly luciferase, cherry-picked, dose response (AID 624132); type: functional;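 also: firefly luciferase luminescence from reporter carrying the Shn3 3'UTR in osteoblasts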
[6] = luciferase reporter signal suppression in cells – H4 neuroglioma cells, luminescence, dose response (AID 1990); type: functional, cell-based
INS1 = experiment: INS-1E survival protection against cytokine death – cell-based, luminescence, retest, dose response (AID 449756); type: functional; details: Rattus norvegicus;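 also: cell death triggered by IL-1 beta plus TNF-alpha plus IFN-gamma mixture; protective hits raise ATP signal compared with cytokine alone wells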
[7] = alpha-synuclein stem-loop luciferase translation blockers – H4 neuroglioma cells, luminescence, confirmation (AID 1988); type: functional, cell-based
[8] = molecular target: T3, Heat shock factor protein 1 (Mus musculus, UniProt P38532); experiment: enhancement of HSF1-driven luciferase signal – cell-based, NIH3T3, luminescence, dose retest, confirmation (AID 435004); type: functional;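 also: stress induced by proteasome inhibitor MG132 added 30 min after compound; luciferase reporter driven by HSF1 response element in NIH3T3 cells; actives raise luminescence as potentiators of the MG132 stress response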
T3 sequence (P38532 whole entry): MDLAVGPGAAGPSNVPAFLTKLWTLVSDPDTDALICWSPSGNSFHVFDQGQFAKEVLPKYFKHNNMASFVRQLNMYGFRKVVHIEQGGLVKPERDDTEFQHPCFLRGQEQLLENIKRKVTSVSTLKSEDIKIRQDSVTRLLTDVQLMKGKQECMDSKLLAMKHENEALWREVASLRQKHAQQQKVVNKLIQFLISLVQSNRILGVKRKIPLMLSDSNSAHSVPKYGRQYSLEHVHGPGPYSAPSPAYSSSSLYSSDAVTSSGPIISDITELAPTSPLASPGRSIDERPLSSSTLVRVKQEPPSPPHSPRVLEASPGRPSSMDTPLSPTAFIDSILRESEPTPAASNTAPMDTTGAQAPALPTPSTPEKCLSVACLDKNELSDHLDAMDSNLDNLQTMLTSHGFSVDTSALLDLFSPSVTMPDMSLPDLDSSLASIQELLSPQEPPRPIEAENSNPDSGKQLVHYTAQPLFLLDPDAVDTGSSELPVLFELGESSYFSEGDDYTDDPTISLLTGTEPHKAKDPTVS

[9] = Luminescence Cell-Based Dose Response HTS to Identify Inhibitors of 5'UTR Stem-Loop Driven Prion Protein mRNA Translation in H4 Neuroglioblastoma Cells. [Related pubchem assays: 1827 (Project Summary), 1813 (Primary HTS)]; type: functional
Protein RecA = molecular target: T4, Protein RecA (Mycobacterium tuberculosis, UniProt P9WHJ3); experiment: Fluorescence Cell-Free Homogeneous Dose Retest to Identify Inhibitors of RecA-Intein Splicing Activity. [Related pubchem assays (depositor defined):AID2097, AID2223, AID489010, AID492950]; type: functional
T4 sequence (P9WHJ3 whole entry): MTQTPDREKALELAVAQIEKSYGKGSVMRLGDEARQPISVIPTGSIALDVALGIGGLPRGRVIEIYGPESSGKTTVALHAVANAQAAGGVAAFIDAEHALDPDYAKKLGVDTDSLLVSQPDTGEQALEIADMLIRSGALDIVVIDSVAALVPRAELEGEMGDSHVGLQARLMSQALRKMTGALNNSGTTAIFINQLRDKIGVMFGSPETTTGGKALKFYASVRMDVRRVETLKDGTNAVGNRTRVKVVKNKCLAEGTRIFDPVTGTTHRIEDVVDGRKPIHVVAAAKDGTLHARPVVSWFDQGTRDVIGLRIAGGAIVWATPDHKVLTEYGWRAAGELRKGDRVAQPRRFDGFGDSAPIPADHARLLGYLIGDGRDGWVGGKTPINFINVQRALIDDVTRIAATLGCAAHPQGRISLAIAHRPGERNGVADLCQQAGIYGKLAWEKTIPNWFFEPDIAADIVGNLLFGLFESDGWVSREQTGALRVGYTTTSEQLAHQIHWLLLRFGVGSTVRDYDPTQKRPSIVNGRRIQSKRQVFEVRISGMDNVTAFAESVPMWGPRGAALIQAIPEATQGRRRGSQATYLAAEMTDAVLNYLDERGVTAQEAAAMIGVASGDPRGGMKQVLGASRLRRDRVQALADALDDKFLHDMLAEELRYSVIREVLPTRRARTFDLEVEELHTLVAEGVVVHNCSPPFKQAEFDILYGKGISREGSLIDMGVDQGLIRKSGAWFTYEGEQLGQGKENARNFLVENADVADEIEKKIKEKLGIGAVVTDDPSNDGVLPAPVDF

[10] = molecular target: T5, Replicative DNA helicase DnaB (Mycobacterium tuberculosis, UniProt P9WMR3); experiment: DnaB intein splicing inhibitors, dose response, biochemical, cell-free fluorescence (AID 449749); type: functional
T5 sequence (P9WMR3 whole entry): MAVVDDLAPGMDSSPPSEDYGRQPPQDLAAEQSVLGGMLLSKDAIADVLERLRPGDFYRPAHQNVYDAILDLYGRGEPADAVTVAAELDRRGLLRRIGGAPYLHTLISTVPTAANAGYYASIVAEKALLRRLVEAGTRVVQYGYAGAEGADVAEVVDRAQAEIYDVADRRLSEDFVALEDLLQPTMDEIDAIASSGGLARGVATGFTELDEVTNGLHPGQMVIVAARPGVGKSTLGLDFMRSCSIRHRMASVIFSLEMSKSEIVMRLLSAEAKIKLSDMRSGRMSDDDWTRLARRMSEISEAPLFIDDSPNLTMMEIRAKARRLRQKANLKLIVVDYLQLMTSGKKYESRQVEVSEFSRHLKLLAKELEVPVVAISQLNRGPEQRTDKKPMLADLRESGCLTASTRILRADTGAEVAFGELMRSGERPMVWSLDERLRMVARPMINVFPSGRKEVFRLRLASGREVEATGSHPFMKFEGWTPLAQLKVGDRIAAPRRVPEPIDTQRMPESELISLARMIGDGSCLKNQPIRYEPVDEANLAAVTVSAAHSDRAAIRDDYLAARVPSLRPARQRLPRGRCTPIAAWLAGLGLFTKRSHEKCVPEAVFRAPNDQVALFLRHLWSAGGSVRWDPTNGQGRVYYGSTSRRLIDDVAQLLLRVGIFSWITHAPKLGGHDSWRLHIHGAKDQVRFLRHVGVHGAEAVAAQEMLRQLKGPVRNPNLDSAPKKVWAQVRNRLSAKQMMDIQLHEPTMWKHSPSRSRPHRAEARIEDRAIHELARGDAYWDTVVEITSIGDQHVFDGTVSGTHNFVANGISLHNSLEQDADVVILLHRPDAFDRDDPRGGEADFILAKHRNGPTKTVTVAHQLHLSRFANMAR

[11] = Luminescence Cell-Based Dose Retest to Confirm Inhibitors of Cancer Stem Cells. [Related pubchem assays (depositor defined):AID2717, AID2721]; type: functional; details: Homo sapiens
[12] = microbe, parasite or virus in culture; type: functional; details: Mycobacterium tuberculosis
[13] = viability of uninfected HEp-2 cells – cell-based, HTS, cytotoxicity control for RSV inhibitor project, dose response (AID 2410); type: functional; details: human respiratory syncytial virus
H4 = experiment: Luminescence Cell-Based Dose Response HTS to Identify Activators of 5'UTR Stem-Loop Driven Prion Protein mRNA Translation in H4 Neuroglioblastoma Cells. [Related pubchem assays: 1829 (Project Summary), 1814 (Primary HTS)]; type: functional; details: Homo sapiens
[14] = Luminescence Cell-Based Dose Response HTS to Identify Activators of Luciferase Translation or Activity in H4 […] Cells. [Related pubchem assays: 1829 (Project Summary), 1814 (Primary HTS)]; type: functional
[15] = Luminescence Cell-Based Dose Confirmation HTS to Identify Activators of 5'UTR Stem-Loop Driven Alpha-Synuclein mRNA Translation in H4 Neuroglioblastoma Cells. [Related pubchem assays: 1829 (Project Summary), 1814 (Primary HTS)]; type: functional

| Compound | EC50 (Streptococcus) | EC50 (Streptokinase A) | EC50 [3] | IC50 [4] | other results |
| --- | --- | --- | --- | --- | --- |
| CC(C)(C)c1ccc(S(=O)(=O)N2CCC(c3nc4cc(Cl)ccc4[nH]3)CC2)cc1 | 45.8 µM (active) | 4.13 µM (active) | 5.2 µM (active) |  | EC50 [1]: 2.97 µM (active); EC50 [2]: > 60 µM (not active) |
| Cc1c(Cl)c(C(F)F)nn1CC(=O)NC1C(=O)N2C(C(=O)O)=C(CSc3nnnn3C)CSC12 (stereo not given) | 0.106 µM (active) |  | < 0.06 µM (active) | 6.48 µM (active) |  |
| Cc1csc(=O)n1CC(=O)OCC(=O)c1c(N)n(C)c(=O)n(C)c1=O |  |  |  |  | AC50 [5]: 27.1 µM (active) |
| O=C(CSc1nnc(-c2ccc(S(=O)(=O)N3CCCC3)cc2)o1)NCc1ccco1 |  |  |  | 16.3 µM (active) |  |
| NCCCn1c(C(=O)c2cc(Cl)c(N)c(Cl)c2)c2ccc([N+](=O)[O-])cc2[n+]1[O-] | 5.08 µM (active) | > 150 µM (not active) | 2.8 µM (active) |  | EC50 [6]: 5.24 µM (active); AC50 (INS1): 4.16 µM (active); EC50 [7]: 2.06 µM (active); EC50 [8]: 46.8 µM (active); EC50 [9]: > 120 µM (not active) |
| FC(F)(F)c1ccc(C2[C@H]3CN(Cc4cccnc4)[C@H](c4ccccc4)C34CC2(c2cccnc2)C4)cc1 (stereo not given in full) | 12 µM (active) | 6.65 µM (active) | 2.85 µM (active) |  | EC50 (Protein RecA): 24.1 µM (active); AC50 [10]: 3.46 µM (active); AC50 [11]: 3.07 µM (active) |
| O=C(Cn1nnc(-c2ccc(NC(=O)c3ccccc3F)cc2)n1)NCc1ccc(F)cc1 |  |  |  | 4.75 µM (active) |  |
| Fc1cccc2sc(Nc3nc4cc5c(cc4s3)OCO5)nc12 | > 150 µM (not active) | > 150 µM (not active) | > 150 µM (not active) |  | CC50 [12]: > 40 µM (active) |
| COc1ccc2c(c1)[N+](C)(C)C(C)(C)C=C2C |  |  |  | 3.14 µM (active) |  |
| C/C(N)=C(/C#N)C(=O)CSc1nc2scc(-c3ccccc3)c2c(=O)n1C | 11.9 µM (active) | > 150 µM (not active) | 1.8 µM (active) |  |  |
| Oc1cccc(Nc2nc(-c3ccccc3Cl)nc3ccccc23)c1 |  |  |  |  | CC50 [13]: 27.1 µM (active); EC50 (Protein RecA): > 380 µM (inactive); AC50 [10]: 138 µM (active) |
| CCCCN1CC(COCc2ccccc2)Oc2cccc(Oc3cc(C)c(C)c(C)c3)c2S1(=O)=O (stereo not given) |  |  |  |  | AC50 [5]: 9.16 µM (active) |
| O=C(N/N=C/c1ccc(Cl)cc1)c1ccc2c(c1)OCO2 |  |  |  | 6.93 µM (active) | EC50 (H4): 2.44 µM (active); EC50 [14]: 1.87 µM (active); EC50 [15]: > 120 µM (not active) |
| CN(C)S(=O)(=O)c1cccc(NC(=O)COC(=O)/C=C/c2ccco2)c1 |  |  |  | 21.1 µM (active) |  |
| Nc1ccc(-c2cn3cccnc3n2)cc1 | > 150 µM (not active) | > 150 µM (not active) | > 150 µM (not active) |  |  |
